{"source": "patent US20140065697A1", "about": "“CELLS AND METHODS FOR PRODUCING ISOBUTYRIC ACID” (Regents of the University of Minnesota, priority 2011, published 2014)", "key": {"YqhD": {"target": "YqhD (Escherichia coli, UniProt Q46856)", "sequence (Q46856 whole entry)": "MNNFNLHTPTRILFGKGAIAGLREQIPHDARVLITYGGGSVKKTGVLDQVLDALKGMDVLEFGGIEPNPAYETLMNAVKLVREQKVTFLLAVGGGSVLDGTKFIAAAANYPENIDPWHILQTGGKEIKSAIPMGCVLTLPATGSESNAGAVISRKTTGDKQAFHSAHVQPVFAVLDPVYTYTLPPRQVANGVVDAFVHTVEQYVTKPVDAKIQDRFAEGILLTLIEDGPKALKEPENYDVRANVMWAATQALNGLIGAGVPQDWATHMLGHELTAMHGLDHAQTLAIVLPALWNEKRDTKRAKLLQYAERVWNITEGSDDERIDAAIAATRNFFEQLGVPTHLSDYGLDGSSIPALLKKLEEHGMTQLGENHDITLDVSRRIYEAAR", "details": "Atsumi et al., 2010; cited from earlier work"}, "PadA [1]": {"target": "T1, PadA (Escherichia coli, UniProt P80668)", "T1 construct": "[…]; 6xHis (N); made in house; host or cells: E. coli BL-21 harboring pREP4; plasmid pIBA10 (pQE9)", "T1 sequence (P80668 1-499)": "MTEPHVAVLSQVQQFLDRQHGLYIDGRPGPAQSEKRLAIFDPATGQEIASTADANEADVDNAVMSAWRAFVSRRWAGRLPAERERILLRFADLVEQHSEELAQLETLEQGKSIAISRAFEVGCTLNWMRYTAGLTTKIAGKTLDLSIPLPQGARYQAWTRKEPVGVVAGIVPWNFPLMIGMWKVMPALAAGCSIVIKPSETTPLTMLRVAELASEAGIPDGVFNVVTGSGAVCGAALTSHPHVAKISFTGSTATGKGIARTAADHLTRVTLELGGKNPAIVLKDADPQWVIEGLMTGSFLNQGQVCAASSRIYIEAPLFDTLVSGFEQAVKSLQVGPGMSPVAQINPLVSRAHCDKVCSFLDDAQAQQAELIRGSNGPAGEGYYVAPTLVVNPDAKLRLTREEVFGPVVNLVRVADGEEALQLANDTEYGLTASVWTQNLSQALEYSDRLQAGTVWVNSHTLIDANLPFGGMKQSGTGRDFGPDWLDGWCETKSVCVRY", "assay": "Measurement of PadA activity (NADH generation at 340 nm, Michaelis-Menten fit)", "assay_type": "biochemical, E. coli", "details": "for kcat: substrate isobutyraldehyde", "procedure": "(§1) Because it produced the greatest amount of isobutyrate, we selected PadA for further study. To characterize the enzyme, PadA was tagged with an N-terminal 6×His-tag, overexpressed, and purified through a Ni-NTA column. The kinetic parameters for conversion of isobutyraldehyde by PadA were determined by measuring the reduction of NAD+ to NADH at 340 nm. PadA activity toward isobutyraldehyde is much lower than that toward its natural physiological substrate phenylacetaldehyde.\n(§2) pIBA10 was transformed into BL-21 E. coli host harboring the pREP4 plasmid (Qiagen; Valencia, Calif.). An overnight pre-culture was diluted 100-fold in 300 mL 2×YT rich medium containing 50 mg/L ampicillin, 25 mg/L kanamycin and 0.1 mM IPTG. Expression of recombinant protein was performed at 30° C. overnight.\n(§3) The cell pellet was sonicated in 30 mL lysis buffer (250 mM NaCl, 2 mM DTT, 5 mM imidazole and 50 mM Tris pH 8.0). The cellular debris was removed by centrifugation at 15,000 RPM for 20 minutes. The supernatant was passed through a Ni-NTA column. Then the column was washed with 10 mL wash buffer (250 mM NaCl, 20 mM imidazole and 50 mM Tris pH 8.0) four times. Finally, the target protein was eluted with 10 mL elution buffer (250 mM NaCl, 250 mM imidazole and 50 mM Tris pH 8.0). The eluate was buffer-exchanged and concentrated into storage buffer ([…] tris buffer, pH 8.0, and 20% glycerol) using AMICON ULTRA centrifugal filter (Millipore Corp.; Billerica, Mass.). Protein concentration was determined by measuring the UV absorbance at 280 nm (extinction coefficient, 75070 cm^−1 M^−1). The concentrated protein solution was aliquoted (100 μl) into PCR tubes and flash frozen at −80° C. for long term storage.\n(§4) Substrate isobutyraldehyde was purchased from Fisher Scientific International, Inc. (Hampton, N.H.), and NAD^+ was from New England Biolabs, Inc., (Ipswich, Mass.). The reaction mixture contained 0.5 mM NAD^+ and 0.2-4 mM isobutyraldehyde in assay buffer (50 mM NaH2PO4, pH 8.0, 1 mM DTT) with a total volume of 80 μl. The reactions were started by adding 2 μl […] (final enzyme concentration 25 nM), and the generation of NADH was monitored at 340 nm (extinction coefficient, 6.22 mM^−1 cm^−1). Kinetic parameters (kat and Km) were determined by fitting initial velocity data to the Michaelis-Menten equation using Origin software."}, "PadA [2]": {"target": "T1, PadA", "details": "natural substrate phenylacetaldehyde (asterisked line); cited from earlier work"}, "CC(C)C=O": {"system": "CC(C)C=O", "assay": "Measurement of PadA activity (NADH generation at 340 nm, Michaelis-Menten fit)", "assay_type": "biochemical, E. coli", "details": "other: PadA, substrate isobutyraldehyde, 0.5 mM NAD+, pH 8.0, 30.0 °C", "procedure": "as §1, §2, §3, §4"}}, "note": "Where two headings read alike, the source gives them in different places."}
{"compound": "CC(C)C=O", "note": "[Isobutyraldehyde, isobutyraldehyde]", "values": [{"measurement": "Km", "setting": "YqhD", "value": 1800, "unit": "µM"}, {"measurement": "Km value higher than toward phenylacetaldehyde", "setting": "PadA [1]", "value": 230, "unit": "fold"}, {"measurement": "kcat value lower than toward phenylacetaldehyde", "setting": "PadA [1]", "value": 4, "unit": "fold"}, {"measurement": "kcat", "setting": "PadA [1]", "value": "24.9 ± 0.5", "unit": "s⁻¹"}, {"measurement": "kcat", "setting": "PadA [1]; listed as isobutyraldehyde", "value": 24.9, "unit": "s⁻¹"}]}
{"compound": "O=CCc1ccccc1", "note": "[Phenylacetaldehyde, phenylacetaldehyde]", "values": [{"measurement": "Km", "setting": "PadA [2]", "value": 11.6, "unit": "µM"}, {"measurement": "kcat", "setting": "PadA [2]", "value": 96.83, "unit": "s⁻¹"}, {"measurement": "specificity constant kcat/Km higher than towards isobutyraldehyde", "setting": "PadA [1]", "value": "~1000", "unit": "fold"}]}
{"compound": "PadA (Escherichia coli K-12)", "values": [{"measurement": "Km", "setting": "CC(C)C=O", "value": 2670, "unit": "µM"}]}
